Key:
Experiment in all cases: relative viability (nuclei count vs DMSO), 5 days (fraction); higher = more cells survive
Etoposide + Decitabine = compound: COc1cc([C@@H]2c3cc4c(cc3[C@@H](O[C@@H]3O[C@@H]5CO[C@@H](C)O[C@H]5[C@H](O)[C@H]3O)[C@H]3COC(=O)[C@H]23)OCO4)cc(OC)c1O [Etoposide] + Nc1ncn([C@H]2C[C@H](O)[C@@H](CO)O2)c(=O)n1 [Decitabine] (partner 2 µM)
In short: (§1)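 Cells from lung cancer lines were seeded into 1536-well plates and, one day later, dosed by pin tool. Treatments were either a single drug or a fixed dose of an anchor drug with five library-drug doses (not always all listed) in √10 steps. After 5 days, nuclei were stained in a one-step fixation (final 0.05% Triton X-100, 1% formaldehyde, 1 ug/ml Hoechst) and counted on 4× images, and relative viability is the treated-to-vehicle nuclei ratio, as the median of duplicate plates.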

Etoposide + Vorinostat = compound: COc1cc([C@@H]2c3cc4c(cc3[C@@H](O[C@@H]3O[C@@H]5CO[C@@H](C)O[C@H]5[C@H](O)[C@H]3O)[C@H]3COC(=O)[C@H]23)OCO4)cc(OC)c1O [Etoposide] + O=C(CCCCCCC(=O)Nc1ccccc1)NO [Vorinostat] (partner 1 µM)
In short: as §1

Bleomycin + Vorinostat = compound: CC1=C(N=C(N=C1N)[C@H](CC(=O)N)NC[C@@H](C(=O)N)N)C(=O)N[C@@H]([C@H](C2=CN=CN2)OC3C(C(C(C(O3)CO)O)O)OC4C(C(C(C(O4)CO)O)OC(=O)N)O)C(=O)N[C@H](C)[C@H]([C@H](C)C(=O)N[C@@H]([C@@H](C)O)C(=O)NCCC5=NC(=CS5)C6=NC(=CS6)C(=O)NCCC[S+](C)C)O [Bleomycin] + O=C(CCCCCCC(=O)Nc1ccccc1)NO [Vorinostat] (partner 1 µM); details: main component drawn
In short: as §1

Etoposide + Dasatinib = compound: COc1cc([C@@H]2c3cc4c(cc3[C@@H](O[C@@H]3O[C@@H]5CO[C@@H](C)O[C@H]5[C@H](O)[C@H]3O)[C@H]3COC(=O)[C@H]23)OCO4)cc(OC)c1O [Etoposide] + Cc1nc(Nc2ncc(C(=O)Nc3c(C)cccc3Cl)s2)cc(N2CCN(CCO)CC2)n1 [Dasatinib] (partner 0.075 µM)
In short: as §1

| Cell Line | relative viability (Etoposide + Decitabine; first compound 0.01 µM) | relative viability (Etoposide + Decitabine; first compound 0.03162 µM) | relative viability (Etoposide + Decitabine; first compound 0.1 µM) | relative viability (Etoposide + Decitabine; first compound 0.3162 µM) | relative viability (Etoposide + Decitabine; first compound 1 µM) | relative viability (Etoposide + Vorinostat; first compound 0.01 µM) | relative viability (Etoposide + Vorinostat; first compound 0.03162 µM) | relative viability (Etoposide + Vorinostat; first compound 0.1 µM) | relative viability (Etoposide + Vorinostat; first compound 0.3162 µM) | relative viability (Etoposide + Vorinostat; first compound 1 µM) | relative viability (Bleomycin + Vorinostat; first compound 0.01 µM) | relative viability (Bleomycin + Vorinostat; first compound 0.03162 µM) | relative viability (Bleomycin + Vorinostat; first compound 0.1 µM) | relative viability (Bleomycin + Vorinostat; first compound 0.3162 µM) | relative viability (Bleomycin + Vorinostat; first compound 1 µM) | relative viability (Etoposide + Dasatinib; first compound 0.01 µM) | relative viability (Etoposide + Dasatinib; first compound 0.03162 µM) | relative viability (Etoposide + Dasatinib; first compound 0.1 µM) | relative viability (Etoposide + Dasatinib; first compound 0.3162 µM) | relative viability (Etoposide + Dasatinib; first compound 1 µM) |
| --- | --- | --- | --- | --- | --- | --- | --- | --- | --- | --- | --- | --- | --- | --- | --- | --- | --- | --- | --- | --- |
| NCI-H2342 | 0.599 | 0.677 | 0.477 | 0.373 | 0.368 | 0.788 | 0.788 | 0.471 | 0.421 | 0.369 | 0.786 | 0.735 | 0.652 | 0.551 | 0.491 | 0.317 | 0.315 | 0.3 | 0.229 | 0.254 |
| SK-MES-1 | 0.344 | 0.481 | 0.35 | 0.238 | 0.199 | 1.11 | 1.2 | 0.873 | 0.806 | 0.351 | 0.839 | 0.936 | 0.903 | 0.471 | 0.235 | 0.315 | 0.388 | 0.429 | 0.286 | 0.131 |
| NCI-H2087 | 0.287 | 0.3 | 0.276 | 0.214 | 0.102 | 1.08 | 0.975 | 0.641 | 0.524 | 0.23 | 0.441 | 0.76 | 0.329 | 0.0956 | 0.15 | 0.672 | 1.06 | 0.653 | 0.553 | 0.166 |
| HCC-366 | 0.357 | 0.334 | 0.189 | 0.102 | 0.0877 | 0.353 | 0.386 | 0.122 | 0.0606 | 0.0304 | 0.115 | 0.135 | 0.0903 | 0.0328 | 0.0275 | 0.644 | 0.774 | 0.36 | 0.178 | 0.0448 |
| 201T | 0.835 | 0.886 | 0.758 | 0.641 | 0.384 | 0.905 | 1.03 | 0.811 | 0.887 | 0.485 | 0.79 | 0.839 | 0.805 | 0.732 | 0.553 | 0.639 | 0.655 | 0.524 | 0.548 | 0.477 |
| HCC-827 | 0.294 | 0.328 | 0.315 | 0.205 | 0.182 | 0.917 | 0.972 | 0.746 | 0.605 | 0.181 | 0.857 | – | 0.736 | 0.585 | 0.207 | 0.243 | 0.298 | 0.177 | 0.279 | 0.188 |
| NCI-H650 | 0.318 | 0.339 | 0.278 | 0.205 | 0.174 | 0.438 | 0.454 | 0.241 | 0.266 | 0.181 | 0.295 | 0.441 | 0.376 | 0.328 | 0.212 | 0.457 | 0.472 | 0.342 | 0.372 | 0.215 |
| NCI-H2023 | 0.246 | 0.247 | 0.204 | 0.146 | 0.109 | 0.442 | 0.626 | 0.335 | 0.176 | 0.0989 | 0.409 | 0.385 | 0.338 | 0.0999 | 0.114 | 0.492 | 0.554 | 0.378 | 0.326 | 0.125 |
| NCI-H596 | 0.826 | 1.05 | 1.09 | 1.01 | 0.857 | 0.52 | 0.672 | 0.449 | 0.591 | 0.323 | 0.479 | 0.438 | 0.438 | 0.22 | 0.293 | 0.608 | 0.657 | 0.543 | 0.647 | 0.507 |
| SK-LU-1 | 0.561 | 0.604 | 0.513 | 0.306 | 0.252 | 0.696 | 0.671 | 0.638 | 0.273 | 0.249 | 0.734 | 0.746 | 0.521 | 0.454 | 0.348 | 0.172 | 0.177 | 0.172 | 0.14 | 0.122 |
| A-427 | 0.54 | 0.549 | 0.477 | 0.354 | 0.275 | 0.864 | 0.864 | 0.761 | 0.625 | 0.309 | 0.753 | 0.768 | 0.717 | 0.46 | 0.271 | 0.702 | 0.818 | 0.435 | 0.446 | 0.2 |
| NCI-H460 | 0.432 | 0.454 | 0.319 | 0.105 | 0.0405 | 0.688 | 0.261 | 0.286 | 0.0502 | 0.0457 | 0.4 | 0.221 | 0.158 | 0.0343 | 0.0306 | 0.432 | 0.509 | 0.285 | 0.132 | 0.0414 |
| NCI-H1792 | 0.515 | 0.741 | – | 0.5 | 0.331 | – | – | – | – | – | – | – | – | – | – | 0.699 | 0.695 | 0.658 | 0.72 | 0.549 |
| SW 1573 | 0.434 | 0.5 | 0.243 | 0.159 | 0.0836 | 0.646 | 0.625 | 0.359 | 0.228 | 0.142 | 0.609 | 0.447 | 0.481 | 0.271 | 0.187 | 0.43 | 0.525 | 0.212 | 0.155 | 0.0993 |
| RERF-LC-KJ | 0.643 | 0.638 | 0.54 | 0.579 | 0.335 | 0.624 | 0.728 | 0.5 | 0.621 | 0.412 | 0.489 | 0.55 | 0.421 | 0.344 | 0.25 | 0.602 | 0.899 | 0.707 | 0.73 | 0.494 |
